Consider 23 compounds from patent publication US11820756B2, “Bradykinin B2 receptor antagonists” (Pharvaris Netherlands B.V., priority 2017, dated 2023).

Broadly, the IC50 is the concentration that inhibits the measured activity by half.

For the assay, the target named is T1, human bradykinin B2 receptor (hB2R) (Homo sapiens, UniProt P30411).
T1 sequence (P30411 1-391): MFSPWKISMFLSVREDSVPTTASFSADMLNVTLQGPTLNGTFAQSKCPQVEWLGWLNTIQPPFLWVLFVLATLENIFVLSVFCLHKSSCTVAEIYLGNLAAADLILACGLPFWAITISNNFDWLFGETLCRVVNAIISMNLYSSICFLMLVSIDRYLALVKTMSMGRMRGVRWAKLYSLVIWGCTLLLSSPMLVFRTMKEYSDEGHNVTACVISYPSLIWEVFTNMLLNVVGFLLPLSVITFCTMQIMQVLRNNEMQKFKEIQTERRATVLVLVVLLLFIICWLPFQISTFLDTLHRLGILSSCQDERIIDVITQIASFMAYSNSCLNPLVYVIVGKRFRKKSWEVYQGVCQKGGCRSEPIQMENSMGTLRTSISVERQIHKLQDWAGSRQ
Nature of the assay: cell-based human bradykinin B2 receptor calcium mobilization (hB2R-CaM) assay. The settings on record: HTS041C cells, bradykinin at EC80, calcium mobilization; read-out: IC50-value towards human bradykinin B2 receptor (hB2R). The essentials:
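HTS041C cells stably expressing hB2R were serum-reduced, loaded with Calcium 6 dye and pre-incubated with compound (8-point, n=2, 0.1% DMSO) for 25 min at 37° C. Bradykinin was then added at EC80. IC50 came from a 4-parameter logistic fit of the max-min fluorescence signal (485/525 nm).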
For orientation: A change in cytosolic calcium serves as a functional read-out for many receptors and channels.

For `CC[C@@H](O)C(=O)N[C@@H](C)c1cc(F)cc(Cl)c1COc1cccc2c(-n3cc(F)cn3)cc(C)nc12` [Compound 24], the IC50 lay within 51 to 250 nM.
In the case of `Cc1cc(-n2ncnc2C)c2cccc(OCc3c(Cl)cc(F)cc3[C@H](C)NC(=O)C(C)F)c2n1` (some centres unmarked) [Compound 193] it was ≤ 50 nM; in that of `Cc1cc(-n2cc(F)cn2)c2cccc(OCc3c(Cl)cc(F)cc3[C@H](C)NC(=O)[C@H]3COC(C)(C)O3)c2n1` [Compound 62], 51 to 250 nM; in that of `Cc1cc(-n2cnc(C)n2)c2cccc(OCc3c(Cl)cc(F)cc3[C@H](C)NC(=O)[C@@H](C)O)c2n1` [Compound 98], 251 to 1000 nM.
As for `[2H]C([2H])([2H])[C@]([2H])(NC(=O)COC(F)F)c1cc(F)cc(Cl)c1COc1cccc2c(-c3ncnn3C)cc(C)nc12` [Compound 11A, N-[(1S)-1-[3-chloro-5-fluoro-2-({[2-methyl-4-(1-methyl-1H-1,2,4-triazol-5-yl)quinolin-8-yl]oxy}methyl)phenyl](1,2,2,2-^2H4)ethyl]-2-(difluoromethoxy)acetamide], the IC50 was ≤ 50 nM.
Turning to `Cc1cc(-n2cc(F)cn2)c2cccc(OCc3c(Cl)cc(F)cc3[C@H](C)NC(=O)[C@](C)(O)C(F)(F)F)c2n1` [Compound 53], the 50% inhibitory concentration (IC50) fell in the range of 251 to 1000 nM.
For `Cc1cc(-n2ncnc2C)c2cccc(OCc3c(Cl)cc(F)cc3[C@H](C)NC(=O)CC(F)(F)F)c2n1` [Compound 179] the value was ≤ 50 nM; for `Cc1cc(-c2ncnn2C)c2cccc(OCc3c(Cl)cc(F)cc3[C@H](C)NC(=O)C3CCC(C)(C)O3)c2n1` (some centres unmarked) [Compound 118], ≤ 50 nM.
Regarding `[2H][C@@](C)(NC(=O)C(C)(F)F)c1cc(F)cc(Cl)c1COc1cccc2c(-c3ncnn3C)cc(C)nc12` [Compound 182], the concentration for half-maximal inhibition (IC50) is ≤ 50 nM.
For `Cc1cc(-c2[nH]ncc2C)c2cccc(OCc3c(Cl)cc(F)cc3[C@H](C)NC(=O)[C@@H](C)O)c2n1` [Compound 188] the value was ≤ 50 nM; for `CC[C@H](NC(=O)COC(F)(F)F)c1cc(F)cc(Cl)c1COc1cccc2c(-n3ncnc3C)cc(C)nc12` [Compound 167], ≤ 50 nM; for `Cc1cc(-n2cc(F)cn2)c2cccc(OCc3c(Cl)cc(F)cc3[C@H](C)NC(=O)c3coc(C)n3)c2n1` [Compound 92], ≤ 50 nM.
For `CCOCC(=O)N[C@@H](C)c1cc(F)cc(Cl)c1COc1cccc2c(-c3ncnn3C)cc(C)nc12` [Compound 84] the value was ≤ 50 nM; for `CCc1ncnn1-c1cc(C)nc2c(OCc3c(Cl)cc(F)cc3[C@H](C)NC(=O)C(C)(C)O)cccc12` [Compound 171], ≤ 50 nM.
In the case of `Cc1cc(-n2ncnc2C)c2cccc(OCc3c(Cl)cc(F)cc3[C@H](C)NC(=O)C(C)(F)F)c2n1` [Compound 180] it was ≤ 50 nM; in that of `Cc1cc(-c2ccnn2C)c2cccc(OCc3c(Cl)cc(F)cc3[C@H](C)NC(=O)[C@H](C)O)c2n1` [Compound 195], ≤ 50 nM.
Turning to `[2H][C@@](C)(NC(=O)CC(F)(F)F)c1cc(F)cc(Cl)c1COc1cccc2c(-c3ncnn3C)cc(C)nc12` [Compound 181], the IC50 was ≤ 50 nM.
Consider `Cc1cc(-n2cc(F)cn2)c2cccc(OCc3c(Cl)cc(F)cc3[C@H](C)NC(=O)[C@@H]3CNC(=O)N3)c2n1` [Compound 113], for which the IC50 lay within 51 to 250 nM.
In the case of `Cc1cc(-c2ncnn2C)c2cccc(OCc3c(Cl)cc(F)cc3[C@H](C)NC(=O)C3(C)CCCO3)c2n1` (some centres unmarked) [Compound 119] it was 51 to 250 nM; in that of `Cc1cc(-c2ncnn2C)c2cccc(OCc3c(Cl)cc(F)cc3[C@H](C)NC(=O)c3coc(C)n3)c2n1` [Compound 130], ≤ 50 nM.
In the case of `Cc1cc(-c2ncc(C#N)n2C)c2cccc(OCc3c(Cl)cc(F)cc3[C@H](C)NC(=O)CC(F)(F)F)c2n1` [Compound 206] it was ≤ 50 nM; in that of `Cc1cc(-n2cc(F)cn2)c2cccc(OCc3c(Cl)cc(F)cc3[C@H](C)NC(=O)C[C@@H](C)O)c2n1` [Compound 26], ≤ 50 nM.
In the case of `CC[C@H](NC(=O)c1cocn1)c1cc(F)cc(Cl)c1COc1cccc2c(-n3ncnc3C)cc(C)nc12` [Compound 165] it was ≤ 50 nM.
